Tested on: SW620 Cell Lines
Assay: Cell proliferation / cytotoxicity assay (CellTiter-Glo 2.0)
Format: cell-based
Conditions: Homo sapiens, SW-620; 72 hours incubation, luminescence (CellTiter-Glo 2.0), 2-fold dilutions starting at 50 μM
Experimental: Compounds are assayed for inhibition of cell proliferation and killing cancer cells. Cytotoxicity assays are conducted according to the following general procedure. […] cells (ATCC CCL-227) are maintained in DMEM Low Glucose (Corning 10-014-CV) media supplemented with 10% fetal bovine serum and 1% PenStrep and grown at 37° C. in 5% CO2. Cells are plated into 96 well flat bottom plates (2 million/plate, ˜20,000/well, 200 μL media/well). The cells are allowed to settle and adhere to the plate bottom overnight. Compounds are diluted in media from a 10 mM stock solution starting at 50 μM, using 2-fold dilutions, in a column in a 96-well plate. Media is removed from the plate containing cells and replaced with media containing diluted compounds. Plates are incubated 72 hours at 37° C. in 5% CO2. Plates are allowed to come to room temperature and 100 μL CellTiter-Glo 2.0 reagent (Promega, G924C) is added at room temperature. Plates are shaken for 2 minutes, then allowed to stand for 15 minutes. Luminescence is read with FLx800 (BioTek Instruments). Data is plotted with GraphPad Prizm 8.0.

Structure (SMILES)	IC50
Cc1nc(N[C@H]2CC[C@@H](C(=O)NC3CCCCC3)CC2)nc2ccc(-c3cccc4c3OCCO4)cc12 [Compound 2B]	5 to 10 µM
Cc1nc(N[C@@H]2C[C@H]3CC[C@@H](C2)N3C(=O)c2ccc(Cl)cc2)nc2ccc(-c3ccnc4c3OCCO4)cc12 [Compound 8C]	< 5 µM
Cc1nc(N[C@H]2CC[C@@H](C(=O)NC(C)C)CC2)nc2ccc(-c3cccc4c3OCCO4)cc12 [Compound 3B]	5 to 10 µM
Cc1ccc2ccc(F)c(-c3ccc4nc(N[C@H]5CC[C@@H](NC(=O)OC(C)(C)C)CC5)nc(C)c4c3)c2n1 [Compound 5C]	5 to 10 µM
Cc1nc(NC2CCN(C(=O)OC(C)(C)C)CC2)nc2ccc(-c3ccnc4ccccc34)cc12 [Compound 4C]	5 to 10 µM
Cc1ccc2ccc(F)c(-c3ccc4nc(NC5CCN(C(=O)OC(C)C)CC5)nc(C)c4c3)c2n1 [Compound 2C]	5 to 10 µM
Cc1ccc2ccc(F)c(-c3ccc4nc(NC5CCN(C(=O)OC(C)(C)C)CC5)nc(C)c4c3)c2n1 [Compound 1C]	< 5 µM
Cc1nc(N[C@H]2CC[C@@H](NC(=O)OC(C)(C)C)CC2)nc2ccc(-c3cc[n+]([O-])c4c3OCCO4)cc12 [Compound 12A]	5 to 10 µM
Cc1nc(N[C@H]2CCC[C@@H](NC(=O)OC(C)(C)C)C2)nc2ccc(-c3ccnc4c3OCCO4)cc12 [Compound 11A]	< 5 µM
Cc1nc(N[C@H]2CC[C@@H](NC(=O)c3ccc(Cl)cc3)CC2)nc2ccc(-c3ccnc4c3OCCO4)cc12 [Compound 8A]	< 5 µM
Cc1nc(N[C@H]2CC[C@H](NC(=O)OC(C)(C)C)CC2)nc2ccc(-c3ccnc4c3OCCO4)cc12 [Compound 4A]	< 5 µM
Cc1nc(N[C@H]2C[C@H](NC(=O)OC(C)(C)C)C2)nc2ccc(-c3ccnc4c3OCCO4)cc12 [Compound 6A]	< 5 µM
Cc1nc(N[C@H]2CC[C@H](NC(=O)OC(C)(C)C)CC2)nc2ccc(-c3cccc4c3CCCC4)cc12 [Compound 7B]	5 to 10 µM
Cc1nc(N[C@H]2CC[C@@H](NC(=O)OC(C)(C)C)CC2)nc2ccc(-c3cccc4c3OCC(=O)N4)cc12 [Compound 7C]	5 to 10 µM
Cc1nc(N[C@H]2CC[C@@H](NC(=O)OC(C)(C)C)CC2)nc2ccc(-c3c(Cl)cnc4c3OCCO4)cc12 [Compound 10A]	< 5 µM
Cc1nc(N[C@@H]2CCN(C(=O)OC(C)(C)C)[C@@H](C)C2)nc2ccc(-c3ccnc4c3OCCO4)cc12 [Compound 1A]	< 5 µM
Cc1nc(N[C@H]2CCN(Cc3ccc(Cl)cc3)[C@@H](C)C2)nc2ccc(-c3ccnc4c3OCCO4)cc12 [Compound 15A]	< 5 µM
Cc1nc(N[C@H]2CC[C@@H](NC(=O)OC(C)(C)C)CC2)nc2ccc(-c3cccc4c3CCCC4)cc12 [Compound 6B]	5 to 10 µM
Cc1nc(N[C@H]2CC[C@@H](NC(=O)OC(C)(C)C)CC2)nc2ccc(-c3ccnc4c3OCCO4)c(F)c12 [Compound 9A]	< 5 µM
Cc1nc(N[C@H]2CC[C@@H](NC(=O)OC(C)(C)C)CC2)nc2ccc(-c3ccnc4c3OCCO4)cc12 [Compound 3A]	< 5 µM
Cc1nc(O[C@H]2CC[C@@H](NC(=O)OC(C)(C)C)CC2)nc2ccc(-c3ccnc4c3OCCO4)cc12 [Compound 7A]	< 5 µM
Cc1nc(N[C@H]2C[C@@H](NC(=O)OC(C)(C)C)C2)nc2ccc(-c3ccnc4c3OCCO4)cc12 [Compound 5A]	< 5 µM
Cc1nc(N[C@H]2CC[C@@H](NC3Cc4cccc(Cl)c4C3)CC2)nc2ccc(-c3ccnc4c3OCCO4)cc12 (stereo partly shown) [Compound 16A]	< 5 µM
Cc1nc(NC2CCN(Cc3ccc(Cl)cc3)CC2)nc2ccc(-c3ccnc4c3OCCO4)cc12 [Compound 13A]	< 5 µM
Cc1nc(NC2CCN(C(=O)c3ccc(Cl)cc3)CC2)nc2ccc(-c3ccnc4c3OCCO4)cc12 [Compound 14A]	< 5 µM
Cc1nc(NC2CCC(C(=O)NCc3ccc(Cl)cc3)CC2)nc2ccc(-c3cccc4c3OCCO4)cc12 (stereo not shown) [Compound 1B]	5 to 10 µM
Cc1nc(NC2CCN(C(=O)OC(C)(C)C)CC2)nc2ccc(-c3cccc4c3CCCC4)cc12 [Compound 5B]	5 to 10 µM
Cc1nc(N[C@@H]2CCN(C(=O)OC(C)(C)C)[C@H](C)C2)nc2ccc(-c3ccnc4c3OCCO4)cc12 [Compound 2A]	< 5 µM
